Experimental data from PubChem BioAssay AID2060506 (Molecular Pharmacology Branch, DTP, NCI, 2025).
Each block holds one compound with its values, some of them ahead of it.

Tested on: 598228-144-R-J1-PDC complex spheroid viability
Assay: Anticancer human tumor 598228-144-R-J1-PDC patient-derived serous endometrial adenocarcinoma cell line growth inhibition [GQUAD]
Details: for IC50: curve of first compound; for viability, T/C: stronger effect = lower value
How it was run: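 Tumor cells were grown as complex spheroids with HUVEC endothelial cells and mesenchymal stem cells as stroma. G-quadruplex stabilizers were combined with targeted agents over half-log dilutions from near the clinical Cmax, or from 10 microM.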

[1] = second compound 0.0316 µM, first compound 0.0316 µM
[2] = second compound 0.0316 µM, first compound 0.1 µM
[3] = second compound 0.0316 µM, first compound 0.316 µM
[4] = second compound 0.0316 µM, first compound 1 µM
[5] = second compound 0.0316 µM, first compound 3.16 µM
[6] = second compound 0.0316 µM, first compound 10 µM
[7] = second compound 0.1 µM, first compound 0.0316 µM
[8] = second compound 0.1 µM, first compound 0.1 µM
[9] = second compound 0.1 µM, first compound 0.316 µM
[10] = second compound 0.1 µM, first compound 1 µM
[11] = second compound 0.1 µM, first compound 3.16 µM
[12] = second compound 0.1 µM, first compound 10 µM
[13] = second compound 0.316 µM, first compound 0.0316 µM
[14] = second compound 0.316 µM, first compound 0.1 µM
[15] = second compound 0.316 µM, first compound 0.316 µM
[16] = second compound 0.316 µM, first compound 1 µM
[17] = second compound 0.316 µM, first compound 3.16 µM
[18] = second compound 0.316 µM, first compound 10 µM
[19] = second compound 1 µM, first compound 0.0316 µM
[20] = second compound 1 µM, first compound 0.1 µM
[21] = second compound 1 µM, first compound 0.316 µM
[22] = second compound 1 µM, first compound 1 µM
[23] = second compound 1 µM, first compound 3.16 µM
[24] = second compound 1 µM, first compound 10 µM
[25] = second compound 3.16 µM, first compound 0.0316 µM
[26] = second compound 3.16 µM, first compound 0.1 µM
[27] = second compound 3.16 µM, first compound 0.316 µM
[28] = second compound 3.16 µM, first compound 1 µM
[29] = second compound 3.16 µM, first compound 3.16 µM
[30] = second compound 3.16 µM, first compound 10 µM
[31] = second compound 10 µM, first compound 0.0316 µM
[32] = second compound 10 µM, first compound 0.1 µM
[33] = second compound 10 µM, first compound 0.316 µM
[34] = second compound 10 µM, first compound 1 µM
[35] = second compound 10 µM, first compound 3.16 µM
[36] = second compound 10 µM, first compound 10 µM
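Note: spheroids exposed to the agents for one week before reading.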
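Throughout, for viability, T/C: percent of vehicle DMSO control viability so 100% = untreated growth.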

IC50 (second compound 0.0316 µM): 6.99 µM | IC50 (second compound 0.1 µM): 3.71 µM | IC50 (second compound 0.316 µM): 2.91 µM | IC50 (second compound 1 µM): 3.27 µM | IC50 (second compound 3.16 µM): < 0.0316 µM | IC50 (second compound 10 µM): < 0.0316 µM
SMILES: CC1COCCN1c1cc(C2(S(C)(=N)=O)CC2)nc(-c2ccnc3[nH]ccc23)n1 (stereo unspecified) + Cc1cnc(CNC(=O)c2c(=O)c3ccc(N4CCCN(C)CC4)nc3n3c2sc2ccccc23)cn1
viability, T/C [1]: 79.9% | viability, T/C [2]: 93.9% | viability, T/C [3]: 71.1% | viability, T/C [4]: 62.4% | viability, T/C [5]: 87.8% | viability, T/C [6]: 36.9% | viability, T/C [7]: 74% | viability, T/C [8]: 61.2% | viability, T/C [9]: 72.7% | viability, T/C [10]: 68.7% | viability, T/C [11]: 53.1% | viability, T/C [12]: 30.2% | viability, T/C [13]: 83.1% | viability, T/C [14]: 63.8% | viability, T/C [15]: 62.8% | viability, T/C [16]: 55.9% | viability, T/C [17]: 57.8% | viability, T/C [18]: 38.1% | viability, T/C [19]: 65.2% | viability, T/C [20]: 57.2% | viability, T/C [21]: 58.7% | viability, T/C [22]: 60.9% | viability, T/C [23]: 49.3% | viability, T/C [24]: 32.4% | viability, T/C [25]: 48.8% | viability, T/C [26]: 49.9% | viability, T/C [27]: 51.8% | viability, T/C [28]: 39.9% | viability, T/C [29]: 49.2% | viability, T/C [30]: 26.4% | viability, T/C [31]: 41.7% | viability, T/C [32]: 30.1% | viability, T/C [33]: 34.1% | viability, T/C [34]: 15.1% | viability, T/C [35]: 33.7% | viability, T/C [36]: 6%

SMILES: CC(=O)O[C@H]1C(=O)[C@@]2(C)[C@H]([C@H](OC(=O)c3ccccc3)[C@]3(O)C[C@H](OC(=O)[C@H](O)[C@@H](NC(=O)c4ccccc4)c4ccccc4)C(C)=C1C3(C)C)[C@]1(OC(C)=O)CO[C@@H]1C[C@@H]2O + Cc1[nH]c2ccc(F)cc2c1-c1nc2c3cccnc3c3ncccc3c2[nH]1
IC50 (second compound 0.0316 µM): 0.141 µM | IC50 (second compound 0.1 µM): 0.051 µM | IC50 (second compound 0.316 µM): 4.36 µM | IC50 (second compound 1 µM): < 0.0316 µM | IC50 (second compound 3.16 µM): < 0.0316 µM | IC50 (second compound 10 µM): < 0.0316 µM | viability, T/C [1]: 56.2% | viability, T/C [2]: 46.4% | viability, T/C [3]: 48.4% | viability, T/C [4]: 43.9% | viability, T/C [5]: 50.9% | viability, T/C [6]: 39.8% | viability, T/C [7]: 55.1% | viability, T/C [8]: 42.1% | viability, T/C [9]: 52.2% | viability, T/C [10]: 41.7% | viability, T/C [11]: 40.6% | viability, T/C [12]: 45.6% | viability, T/C [13]: 63.6% | viability, T/C [14]: 59.6% | viability, T/C [15]: 52.5% | viability, T/C [16]: 53.3% | viability, T/C [17]: 50.1% | viability, T/C [18]: 49.1% | viability, T/C [19]: 49.8% | viability, T/C [20]: 42.9% | viability, T/C [21]: 50.1% | viability, T/C [22]: 39% | viability, T/C [23]: 37.5% | viability, T/C [24]: 40.1% | viability, T/C [25]: 45.2% | viability, T/C [26]: 33.6% | viability, T/C [27]: 37.5% | viability, T/C [28]: 39.3% | viability, T/C [29]: 34.9% | viability, T/C [30]: 38.4% | viability, T/C [31]: 40.3% | viability, T/C [32]: 46.3% | viability, T/C [33]: 41.7% | viability, T/C [34]: 49.5% | viability, T/C [35]: 48.3% | viability, T/C [36]: 39.6%

SMILES: CC1COCCN1c1cc(C2(S(C)(=N)=O)CC2)nc(-c2ccnc3[nH]ccc23)n1 (stereo unspecified) + Cc1[nH]c2ccc(F)cc2c1-c1nc2c3cccnc3c3ncccc3c2[nH]1
IC50 (second compound 0.0316 µM): > 10 µM | IC50 (second compound 0.1 µM): 5.23 µM | IC50 (second compound 0.316 µM): 0.914 µM | IC50 (second compound 1 µM): 0.551 µM | IC50 (second compound 3.16 µM): < 0.0316 µM | IC50 (second compound 10 µM): 0.629 µM | viability, T/C [1]: 114% | viability, T/C [2]: 108% | viability, T/C [3]: 89.2% | viability, T/C [4]: 69.9% | viability, T/C [5]: 73% | viability, T/C [6]: 50% | viability, T/C [7]: 106% | viability, T/C [8]: 100% | viability, T/C [9]: 97.7% | viability, T/C [10]: 87.1% | viability, T/C [11]: 56.9% | viability, T/C [12]: 40.5% | viability, T/C [13]: 97.3% | viability, T/C [14]: 94.4% | viability, T/C [15]: 69% | viability, T/C [16]: 47% | viability, T/C [17]: 52.9% | viability, T/C [18]: 43.3% | viability, T/C [19]: 58% | viability, T/C [20]: 59.7% | viability, T/C [21]: 58.9% | viability, T/C [22]: 40.5% | viability, T/C [23]: 45.1% | viability, T/C [24]: 34.5% | viability, T/C [25]: 36.9% | viability, T/C [26]: 42.2% | viability, T/C [27]: 39.2% | viability, T/C [28]: 36.8% | viability, T/C [29]: 39.7% | viability, T/C [30]: 35.6% | viability, T/C [31]: 60.3% | viability, T/C [32]: 53.8% | viability, T/C [33]: 59.4% | viability, T/C [34]: 43.1% | viability, T/C [35]: 44.6% | viability, T/C [36]: 41.5%
